How the values were obtained:
[1] = tested on: CFTR channel activity in human bronchial epithelial cells (HBEC) from a 3849+10 kbC-T homozygous patient; assay: Ussing chamber analysis of CFTR function in 3849+10 kbC-T HBEC; format: cell-based
Source text: FIG. 11. CFTR activity restored to CF splicing mutation 3849+10 kbC-T using SSOs. SSOs were delivered in vitro by electroporation (˜100% efficiency), CF primary cells were differentiated on permeable supports and tested. Panel A. PCR analysis. The lower band is the correctly spliced CFTR. Panel B. Functional correction by Ussing chamber analysis.
FIG. 12. OEC Mediated Delivery of a SSO in 3849+10 kbC-T HBEC. Well-differentiated human bronchial epithelial cells (HBEC) derived from a 3849+10 kbC-T homozygous patient were incubated with corrective (LNA) SSO A from FIG. 1 (1 uM, overnight). Cells were then incubated with OEC UNC2383 in the luminal or serosal bath (4 uM, 2 hs). Both the SSO and OEC were added in cell growing medium. Seventy two hour later, HBEC were analyzed in Ussing chamber for CFTR function. Orkambi® was tested in parallel inserts.
Results: In vitro studies were performed in well-differentiated HBEC cells derived from a homozygous 3849+10 kbC→T CF patient (CF HBEC) treated with one dose of a specific SSO (1 uM, 12 hs) followed by one dose of OEC (apical or basolateral delivery, 2-4 uM, 2-3 hs). A significant increase of forskolin-stimulated CFTR activity in Ussing chamber analyses was observed 24-96 hs after SSO+OEC treatment compared to SSO alone treatment or vehicle. OEC was efficacious delivered apically as well as basolaterally. Transepithelial resistance and microscopy tests were implemented to monitor cytotoxicity, which was negligible for both SSO and OEC (FIG. 12). In vivo studies were performed in a transgenic mouse model that has a SSO-inducible EGFP reporter.
SSOs (100 nM) were introduced in airway epithelial cells derived from a 3849+10 kbC-T homozygous CF patient in suspension by electroporation using the Neon system, program A4. Cells were differentiated for 2 weeks in culture on human collagen-coated permeable supports (Millipore) before being tested in Ussing chambers following methods described in Kreda et al. […] “Characterization of Wild-Type and ΔF508 Cystic Fibrosis Transmembrane Regulator in Human Respiratory Epithelia” Mol. Biol. Cell 16(5):2154-2167 (100 uM Amiloride, Amil; 10 uM Forskolin, Fsk; 20 uM CFTR inhibitor 172). After Ussing chamber analysis, cells were lysed and assayed for RT-PCR as described in Wang et al 2017 (FIG. 11).
(SEQ ID NO:2), C (5′+G*mA*mG*mU*+C*mU*mU**mU*mA*+C*mU*mC*mA*mC*mC*+A*mU*mU*mU) (SEQ ID NO:3) (Locked Nucleic Acid (LNA)=+, PS=*, 2′OMe=m). In SSO sequences A, B, and C the underlined bases indicate oligo bases that match up to the bases in the mutated splice site in the 3849+10 kb C-T CFTR splicing mutation. MM623 or SSO623 sequences are described herein. […]

EGFP654 transgenic mouse = assay: In vivo EGFP splice correction in EGFP654 transgenic mice
Protocol: FIG. 10A-10E. In vivo effects-RNA. EGFP654 mice were treated with SSO623 or a mismatched control (MM) and then received UNC2383 or diluent (N=3). RT-PCR with gel analysis was used to detect correctly or incorrectly spliced EGFP mRNA. The gel images were quantitated using Fiji software. Gel image for liver FIG. 10A. The lower band (87 bp) is correctly spliced EGFP mRNA, while the upper band (160 bp) is uncorrected. FIG. 10B-10E Quantitation of splice correction in liver FIG. 10B, kidney FIG. 10C, intestine FIG. 10D, and lung FIG. 10E. The bars indicate the ratio of correctly spliced to incorrectly spliced mRNA×100. […] EGFP immunostaining was performed in liver, lung, and intestine tissue and analyzed by confocal microscopy. […]
Effects of UNC2383 on endosome stability were monitored in cell culture models as previously described. […] Live cells were imaged by fluorescence confocal microscopy with or without treatment with UNC2383 or its analogs. […] Co-localization of TAMRA labeled SSO 623 with marker proteins was quantitated using Fiji (ImageJ) software and expressed as a Manders' Correlation Coefficient. […] EGFP protein expression was monitored by immunostaining with an anti-EGFP antibody (Abcam) using techniques previously described. […]
PCR techniques. […] The PCR products were separated on 1.5% agarose gels and bands were visualized by staining with Gel RedTMand quantitated using a Biorad ChemiDoc XRS+ scanner. […]

Q: Which results are given for O=C(Nc1nc2ccccc2n1CCN1CCCC1)c1cc2cc(Cl)ccc2o1 [UNC2383]?
A: CFTR channel activity / functional correction ([1]; SSO A 1 uM overnight, OEC 4 uM 2 hs luminal or serosal, 72 h, approved drugs in parallel): significant enhancement; oligonucleotide enhancing activity in human airway epithelial cells ([1]; in vitro): negligible activity; correctly spliced EGFP message (RT-PCR) (EGFP654 transgenic mouse; 35 mg/kg SSO623 i.p. two days, then 5 mg/kg UNC2383 i.p., liver, kidney, lung, intestine, 5 h): increase in correctly spliced EGFP message; EGFP protein expression (immunostaining) (EGFP654 transgenic mouse; SSO623 plus UNC2383, bronchi, intestinal crypts, 24 h): expressed EGFP

— patent US11040056B2, “Benzimidazoles that enhance the activity of oligonucleotides” (The University of North Carolina at Chapel Hill, priority 2018, dated 2021)
